Results: PMC6680840 (Molecules, 2019)
Values joined by “and” are separate entries in the source; they are usually repeats but may differ in a detail not shown here. Equal entries are not always repeated.

Experiments:
[1] = target: T1, AChE (from human erythrocyte) (Homo sapiens, UniProt P22303); test: biochemical; settings: for AChE IR (%) inhibition ratio: at 50 μM; for IC50: mean ± SD of three separate experiments
T1 construct: AChE (EC 3.1.1.8, from human erythrocyte); purchased Sigma-Aldrich (St. Louis, MO, USA); host or cells: human erythrocyte
T1 sequence (P22303 other isoform, or with tags, fused parts or gaps): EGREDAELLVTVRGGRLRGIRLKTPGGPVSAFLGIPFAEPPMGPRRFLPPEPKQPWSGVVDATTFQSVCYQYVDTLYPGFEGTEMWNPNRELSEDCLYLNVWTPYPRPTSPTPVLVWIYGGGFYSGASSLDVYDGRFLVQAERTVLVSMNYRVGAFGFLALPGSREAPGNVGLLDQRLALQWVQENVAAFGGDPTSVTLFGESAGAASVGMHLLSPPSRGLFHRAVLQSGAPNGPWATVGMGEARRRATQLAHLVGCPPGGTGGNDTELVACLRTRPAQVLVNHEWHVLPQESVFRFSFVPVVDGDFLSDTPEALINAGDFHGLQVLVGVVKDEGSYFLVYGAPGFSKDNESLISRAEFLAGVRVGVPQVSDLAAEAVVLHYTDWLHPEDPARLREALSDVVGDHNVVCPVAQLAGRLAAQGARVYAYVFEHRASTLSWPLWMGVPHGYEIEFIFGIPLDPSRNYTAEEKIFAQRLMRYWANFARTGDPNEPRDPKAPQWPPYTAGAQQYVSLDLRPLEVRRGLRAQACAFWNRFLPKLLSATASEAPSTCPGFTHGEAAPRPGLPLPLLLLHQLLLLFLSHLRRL
Experimental: (§1) BChE (EC 3.1.1.8, from human serum), AChE (EC […]), butyrylthiocholine (BUC) iodide, and acetylthiocholine (ATC) iodide were purchased from Sigma-Aldrich (St. Louis, MO, USA). Enzyme was dissolved and pre-prepared at 2.0 U/mL. 10 μL of enzyme, 20 μL of 0.01 M 5,5′-dithiobis(2-nitrobenzoic acid), 10 μL of tested compound, and 40 μL of PBS were pre-incubated together for 5 min. Io initiate the reaction, 20 μL of 0.01 M BUC or ATC was added. The activity was determined by measuring the increase in absorbance at 410 nm at 37 °C in 2 min intervals using Tecan Spark multimode microplate reader (Mannedorf, Switzerland). The percentage of inhibition (I) was calculated according to the formula: I = (Ac − Ai)/Ac × 100%, with Ai and Ac representing the change in the absorbance in the presence of an inhibitor and without an inhibitor, respectively.

[2] = target: T2, BChE (EC 3.1.1.8, from human serum) (Homo sapiens, UniProt P06276); test: biochemical; settings: for BChE IR (%) inhibition ratio: at 50 μM; for IC50: mean ± SD of three separate experiments
T2 construct: BChE (EC 3.1.1.8, from human serum); purchased Sigma-Aldrich (St. Louis, MO, USA); host or cells: human serum
T2 sequence (P06276 29-602): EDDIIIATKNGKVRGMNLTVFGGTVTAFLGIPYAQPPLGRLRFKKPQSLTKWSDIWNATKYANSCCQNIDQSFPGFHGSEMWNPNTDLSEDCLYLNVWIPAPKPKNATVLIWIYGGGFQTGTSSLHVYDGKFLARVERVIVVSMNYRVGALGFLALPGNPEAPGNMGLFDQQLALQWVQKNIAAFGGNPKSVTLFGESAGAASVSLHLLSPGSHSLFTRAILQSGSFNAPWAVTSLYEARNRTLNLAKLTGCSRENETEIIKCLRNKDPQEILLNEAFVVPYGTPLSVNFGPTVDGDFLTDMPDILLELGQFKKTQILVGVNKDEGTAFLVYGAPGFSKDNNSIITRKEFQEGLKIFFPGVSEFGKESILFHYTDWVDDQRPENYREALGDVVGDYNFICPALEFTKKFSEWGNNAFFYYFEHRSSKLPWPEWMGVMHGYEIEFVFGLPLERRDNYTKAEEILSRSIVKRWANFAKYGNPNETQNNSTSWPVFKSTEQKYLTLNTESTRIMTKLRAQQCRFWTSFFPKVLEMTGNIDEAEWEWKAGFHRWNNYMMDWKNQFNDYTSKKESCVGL
Experimental: as §1

[3] = system: Aβ1-42-induced toxicity in SH-SY5Y cells; test: Protective activity against Aβ1-42-induced toxicity, MTT method; assay type: cell-based; settings: compound at 10 μM, 10 μM Aβ1-42 for 24h
Experimental: Based on this observation, compound 23 might be a more promising protective agent against Aβ1-42-induced toxicity on the SH-SY5Y cell model.
The MTT method was used to test the cytotoxicity and neuroprotective activity evaluation of compounds. The detailed procedure was included in Supplementary Materials. […]
formazan crystals. The formazan dye product was measured by the absorbance at 490 nm on a Tecan Spark multimode microplate reader (Tecan, Switzerland).
Neuroprotective activity assay
SH-SY5Y cells were maintained at 37 °C in a humidified atmosphere containing 5% CO2. Cells were seeded into multi-well plates at a density of 2~2.5 × 10^5 cells/mL in DMEM medium, supplemented with 10% heat-inactivated bovine calf serum (Gibco, South America Origin). Experiments were carried out in 24 h after cells were seeded.
Aβ1–42 were stored at 4 °C until 0.1 mM stock solutions were prepared in phosphate bufer saline (PBS) on the day of application to cultures. Th e compounds were first dissolved with DMSO and then diluted with DMEM medium. After pretreatment with the compounds for 2 h, Aβ1–42 were added to SH-SY5Y cell cultures in 24 h. Assays for cell viability were performed in 24 h after cultured in fresh medium .

SMILES | AChE IR (%) inhibition ratio [1] | BChE IR (%) inhibition ratio [2] | IC50 [2] | IC50 [1] | cell viability of Aβ1-42-treated SH-SY5Y cells [3]
COC(CNC(=O)c1ccc(CN2CCc3ccccc3C2)cc1)OC [Compound 5, 4-((3,4-dihydroisoquinolin-2(1H)-yl)methyl)-N-(2,2-dimethoxyethyl)benzamide] | 2.7% | 56.6% | 38.1 ± 1.68 µM | – | –
O=C(NCCN1CCCC1)c1ccc(CN2CCc3ccccc3C2)cc1 [Compound 7, 4-((3,4-dihydroisoquinolin-2(1H)-yl)methyl)-N-(2-(pyrrolidin-1-yl)ethyl)benzamide] | 4.4% | – | 15.2 ± 2.33 µM | – | –
O=C(Nc1ccc(Br)cc1F)c1ccc(CN2CCc3ccccc3C2)cc1 [Compound 22, N-(4-bromo-2-fluorophenyl)-4-((3,4-dihydroisoquinolin-2(1H)-yl)methyl)benzamide] | 28.3% | 15.4% | – | – | –
O=C(c1ccc(CN2CCc3ccc(Br)cc3C2)cc1)N1CCCC1 [Compound 12, (4-((7-bromo-3,4-dihydroisoquinolin-2(1H)-yl)methyl)phenyl)(pyrrolidin-1-yl)methanone] | – | – | 39.4 ± 2.25 µM | > 50 µM | –
O=C(O[C@@H]1Cc2c(O)cc(O)cc2O[C@@H]1c1cc(O)c(O)c(O)c1)c1cc(O)c(O)c(O)c1 [EGCG, epigallocatechin gallate, reference compound] | – | – | – | – | 87.18 ± 1.29%
COc1ccc2[nH]cc(CCNC(=O)c3ccc(CN4CCc5ccccc5C4)cc3)c2c1 [Compound 30, 4-((3,4-dihydroisoquinolin-2(1H)-yl)methyl)-N-(2-(5-methoxy-1H-indol-3-yl)ethyl)benzamide] | 8.3% | 1.1% | – | – | –
COc1cc2c(cc1OC)CN(Cc1ccc(C(=O)N3CCCC3)cc1)CC2 [Compound 14, (4-((6,7-dimethoxy-3,4-dihydroisoquinolin-2(1H)-yl)methyl)phenyl)(pyrrolidin-1-yl)methanone] | – | – | – | 18.2 ± 0.86 µM | –
O=C(NCc1ccc(F)cc1)c1ccc(CN2CCc3ccccc3C2)cc1 [Compound 19, 4-((3,4-dihydroisoquinolin-2(1H)-yl)methyl)-N-(4-fluorobenzyl)benzamide] | 2.3% | 83.9% | 14.8 ± 0.58 µM | – | –
COc1ccc2c(c1)CCN(Cc1ccc(C(=O)N3CCCC3)cc1)C2 [Compound 13, (4-((6-methoxy-3,4-dihydroisoquinolin-2(1H)-yl)methyl)phenyl)(pyrrolidin-1-yl)methanone] | – | – | 12.6 ± 0.88 µM | 12.1 ± 0.9 µM | –
O=C(Nc1cccc(Br)c1)c1ccc(CN2CCc3ccccc3C2)cc1 [Compound 24, N-(3-bromophenyl)-4-((3,4-dihydroisoquinolin-2(1H)-yl)methyl)benzamide] | 21.6% | 35.1% | – | – | –
O=C(Oc1ccccc1Br)c1ccc(CN2CCc3ccccc3C2)cc1 [Compound 26, 2-bromophenyl 4-((3,4-dihydroisoquinolin-2(1H)-yl)methyl)benzoate] | 26.2% | 11% | – | – | –
CC(C)N(CCNC(=O)c1ccc(CN2CCc3ccccc3C2)cc1)C(C)C [Compound 2, 4-((3,4-dihydroisoquinolin-2(1H)-yl)methyl)-N-(2-(diisopropylamino)ethyl)benzamide] | 56.1% | 76.4% | 9.98 ± 0.89 µM | 21.5 ± 0.98 µM | –
O=C(c1ccc(CN2CCc3cc(Br)ccc3C2)cc1)N1CCCC1 [Compound 11, (4-((6-bromo-3,4-dihydroisoquinolin-2(1H)-yl)methyl)phenyl)(pyrrolidin-1-yl)methanone] | – | – | 8.38 ± 0.65 µM | 30.6 ± 1.82 µM | –
O=C(c1ccc(CN2CCc3ccccc3C2)cc1)N1CCOCC1 [Compound 10, (4-((3,4-dihydroisoquinolin-2(1H)-yl)methyl)phenyl)(morpholino)methanone] | 3.4% | 11.2% | – | – | –
O=C(Nc1ccc(F)cc1)c1ccc(CN2CCc3ccccc3C2)cc1 [Compound 18, 4-((3,4-dihydroisoquinolin-2(1H)-yl)methyl)-N-(4-fluorophenyl)benzamide] | 7.0% | 14.1% | – | – | –
O=C(Nc1ccccc1)c1ccc(CN2CCc3ccccc3C2)cc1 [Compound 15, 4-((3,4-dihydroisoquinolin-2(1H)-yl)methyl)-N-phenylbenzamide] | 8% | 23.7% | – | – | –
CCN1CCCC1CNC(=O)c1ccc(CN2CCc3ccccc3C2)cc1 (stereo not shown) [Compound 8, 4-((3,4-dihydroisoquinolin-2(1H)-yl)methyl)-N-((1-ethylpyrrolidin-2-yl)methyl)benzamide] | 13.3% | 63.0% | 25 ± 1.27 µM | – | –
O=C(Nc1ccccc1F)c1ccc(CN2CCc3ccccc3C2)cc1 [Compound 16, 4-((3,4-dihydroisoquinolin-2(1H)-yl)methyl)-N-(2-fluorophenyl)benzamide] | 2.1% | 74.7% | 6.9 µM and 6.93 µM | – | –
O=C(Nc1ccc(Br)cc1)c1ccc(CN2CCc3ccccc3C2)cc1 [Compound 25, N-(4-bromophenyl)-4-((3,4-dihydroisoquinolin-2(1H)-yl)methyl)benzamide] | 40.6% | 8.1% | – | – | –
CCNCCNC(=O)c1ccc(CN2CCc3ccccc3C2)cc1 [Compound 4, 4-((3,4-dihydroisoquinolin-2(1H)-yl)methyl)-N-(2-(ethylamino)ethyl)benzamide] | 8.8% | 27.2% | – | – | –
O=C(Nc1cccc(F)c1)c1ccc(CN2CCc3ccccc3C2)cc1 [Compound 17, 4-((3,4-dihydroisoquinolin-2(1H)-yl)methyl)-N-(3-fluorophenyl)benzamide] | 7.7% | 10.0% | – | – | –
CN(C)CCNC(=O)c1ccc(CN2CCc3ccccc3C2)cc1 [Compound 3, 4-((3,4-dihydroisoquinolin-2(1H)-yl)methyl)-N-(2-(dimethylamino)ethyl)benzamide] | 11.4% | 36.9% | – | – | –
CCN(CC)CCNC(=O)c1ccc(CN2CCc3ccccc3C2)cc1 [Compound 1, N-(2-(diethylamino)ethyl)-4-((3,4-dihydroisoquinolin-2(1H)-yl)methyl)benzamide] | 26.6% | 68.4% | 17.9 µM | > 50 µM | –
O=C(NCCc1c[nH]c2ccccc12)c1ccc(CN2CCc3ccccc3C2)cc1 [Compound 28, N-(2-(1H-indol-3-yl)ethyl)-4-((3,4-dihydroisoquinolin-2(1H)-yl)methyl)benzamide] | 8.4% | 1.3% | – | – | –
O=C(Nc1ccc(Cl)cc1F)c1ccc(CN2CCc3ccccc3C2)cc1 [Compound 21, N-(4-chloro-2-fluorophenyl)-4-((3,4-dihydroisoquinolin-2(1H)-yl)methyl)benzamide] | 5% | 38.6% | – | – | –
O=C(NNc1ccc(F)cc1)c1ccc(CN2CCc3ccccc3C2)cc1 [Compound 20, 4-((3,4-dihydroisoquinolin-2(1H)-yl)methyl)-N2019-(4-fluorophenyl)benzohydrazide] | 21.8% | 13.2% | – | – | –
O=C(NCCN1CCOCC1)c1ccc(CN2CCc3ccccc3C2)cc1 [Compound 6, 4-((3,4-dihydroisoquinolin-2(1H)-yl)methyl)-N-(2-morpholinoethyl)benzamide] | 13.4% | 19.1% | – | – | –
Cc1ccc2[nH]cc(CCNC(=O)c3ccc(CN4CCc5ccccc5C4)cc3)c2c1 [Compound 29, 4-((3,4-dihydroisoquinolin-2(1H)-yl)methyl)-N-(2-(5-methyl-1H-indol-3-yl)ethyl)benzamide] | 4.6% | 6.5% | – | – | –
O=C(Sc1ccccc1Br)c1ccc(CN2CCc3ccccc3C2)cc1 [Compound 27, S-(2-bromophenyl) 4-((3,4-dihydroisoquinolin-2(1H)-yl)methyl)benzothioate] | 22.8% | 1.5% | – | – | –
